Measurements from US20080242661A1, “Novel compounds useful for the treatment of degenerative & inflammatory diseases” (priority 2006, published 2008).

Molecular target: purified PDE1A enzyme (Homo sapiens, UniProt P54750)
Assay: In vitro PDE1A assay, dose response (Biomol Cyclic Nucleotide Phosphodiesterase Assay Kit, colorimetric)
Type: biochemical
Settings: 100 μM cAMP, 45 min at 37° C., 8 points from 20 μM, duplicate
Text: For the dose response and further screening, we used the Cyclic Nucleotide Phosphodiesterase Assay Kit from Biomol, a colorimetric, non-radioactive assay. The basis for the assay is the cleavage of cAMP by PDE1A. The 5′AMP is further cleaved into the nucleoside and phosphate by the enzyme 5′-nucleotidase (catnr KI-307). The phosphate released due to enzymatic cleavage is quantified using BIOMOL GREEN™ reagent (catnr AK-111) in a modified Malachite Green assay 1,2. A PDE1A inhibitor will result in a decrease of the signal.
For the enzymatic reaction a mix of 25 μL with purified PDE1A enzyme, 100 μM cAMP, 5′Nucleotidase and the compound is made in a clear 384-plate. The reaction buffer is Tris 20 mM pH 7.4, 4 μg/ml calmodulin, 3 mM MgCl2, 1.5 mM CaCl2, 0.2 mg/mL BSA and 0.001% Brij-35. After an incubation of 45 minutes at 37° C., the reaction is stopped by the addition of 50 μL BIOMOL GREEN™ reagent. After 30 minutes incubation at room temperature, the readout is performed on the Envision (absorption at 615 nm).
All compounds are tested in duplicate starting from 20 μM followed by a ⅓ serial dilution, 8 points (20 μM-6.67 μM-2.22 μM-740 nM-247 nM-82 nM-27 nM-9 nM) in a final concentration of 1% DMSO. As the positive dose response control compound Vardenafil is used. For the calculation of z′ and PIN values 10 μM Vardenafil is used as positive control (100% inhibition) and 1% DMSO as negative control (0% inhibition).
The following compounds have been or can be prepared according to the synthetic methods described above. For the purpose of Table 2 below, activity of each compound, which can be determined using the PDE1A assay method described in above, is expressed as follows: […]

Row | SMILES | IC50 [µM]
1 | CCCc1nn(C)c2c(=O)[nH]c(N3CCCN(Cc4c(F)cccc4Cl)CC3)nc12 [Example 1, 5-(4-(2-chloro-6-fluorobenzyl)-1,4-diazepan-1-yl)-1-methyl-3-propyl-1H-pyrazolo[4,3-d]pyrimidin-7(6H)-one] | > 0.5
2 | CCCc1nn(C)c2c(=O)[nH]c(N(C)Cc3ccc(Cl)c(Cl)c3)nc12 [Example 2, 5-((3,4-dichlorobenzyl)(methyl)amino)-1-methyl-3-propyl-1H-pyrazolo[4,3-d]pyrimidin-7(6H)-one] | < 0.1
3 | CCCc1nn(C)c2c(=O)[nH]c(N(C)Cc3ccc(N4CCCCC4)cc3)nc12 [Example 3, 1-methyl-5-(methyl(4-(piperidin-1-yl)benzyl)amino)-3-propyl-1H-pyrazolo[4,3-d]pyrimidin-7(6H)-one] | 0.101 to 0.5
4 | CCCc1nn(C)c2c(=O)[nH]c(N(CCC)CCC)nc12 [Example 4, 5-(dipropylamino)-1-methyl-3-propyl-1H-pyrazolo[4,3-d]pyrimidin-7(6H)-one] | < 0.1
5 | CCCc1nn(C)c2c(=O)[nH]c(N(C)Cc3cccc(C(F)(F)F)c3)nc12 [Example 5, 1-methyl-5-(methyl(3-(trifluoromethyl)benzyl)amino)-3-propyl-1H-pyrazolo[4,3-d]pyrimidin-7(6H)-one] | 0.101 to 0.5
6 | CCCc1nn(C)c2c(=O)[nH]c(NCc3ccc(N4CCN(C)CC4)cc3)nc12 [Example 6, 1-methyl-5-(4-(4-methylpiperazin-1-yl)benzylamino)-3-propyl-1H-pyrazolo[4,3-d]pyrimidin-7(6H)-one] | > 0.5
7 | CCCc1nn(C)c2c(=O)[nH]c(Nc3ccc4[nH]ncc4c3)nc12 [Example 7, 5-(1H-indazol-5-ylamino)-1-methyl-3-propyl-1H-pyrazolo[4,3-d]pyrimidin-7(6H)-one] | > 0.5
8 | CCCc1nn(C)c2c(=O)[nH]c(N3CCc4ccccc4C3)nc12 [Example 8, 5-(3,4-dihydroisoquinolin-2(1H)-yl)-1-methyl-3-propyl-1H-pyrazolo[4,3-d]pyrimidin-7(6H)-one] | 0.101 to 0.5
9 | CCCc1nn(C)c2c(=O)[nH]c(N(C)Cc3ccc(OC)cc3)nc12 [Example 9, 5-((4-methoxybenzyl)(methyl)amino)-1-methyl-3-propyl-1H-pyrazolo[4,3-d]pyrimidin-7(6H)-one] | < 0.1
10 | CCCc1nn(C)c2c(=O)[nH]c(N(C)Cc3cccc(N4CCOCC4)c3)nc12 [Example 10, 1-methyl-5-(methyl(3-morpholinobenzyl)amino)-3-propyl-1H-pyrazolo[4,3-d]pyrimidin-7(6H)-one] | 0.101 to 0.5
11 | CCCc1nn(C)c2c(=O)[nH]c(NCc3cccc(N4CCCCC4)c3)nc12 [Example 11, 1-methyl-5-(3-(piperidin-1-yl)benzylamino)-3-propyl-1H-pyrazolo[4,3-d]pyrimidin-7(6H)-one] | 0.101 to 0.5
12 | CCCc1nn(C)c2c(=O)[nH]c(N(C)Cc3cccc(-c4cncnc4)c3)nc12 [Example 12, 1-methyl-5-(methyl(3-(pyrimidin-5-yl)benzyl)amino)-3-propyl-1H-pyrazolo[4,3-d]pyrimidin-7(6H)-one] | 0.101 to 0.5
13 | CCCc1nn(C)c2c(=O)[nH]c(N(C)Cc3ccc(-c4cncnc4)cc3)nc12 [Example 13, 1-methyl-5-(methyl(4-(pyrimidin-5-yl)benzyl)amino)-3-propyl-1H-pyrazolo[4,3-d]pyrimidin-7(6H)-one] | 0.101 to 0.5
14 | CCCc1nn(C)c2c(=O)[nH]c(N(C)Cc3cc(C)n(C)n3)nc12 [Example 14, 5-(((1,5-dimethyl-1H-pyrazol-3-yl)methyl)(methyl)amino)-1-methyl-3-propyl-1H-pyrazolo[4,3-d]pyrimidin-7(6H)-one] | 0.101 to 0.5
15 | CCCc1nn(C)c2c(=O)[nH]c(N(C)Cc3cccc(Cl)c3)nc12 [Example 15, 5-((3-chlorobenzyl)(methyl)amino)-1-methyl-3-propyl-1H-pyrazolo[4,3-d]pyrimidin-7(6H)-one] | 0.101 to 0.5
16 | CCCc1nn(C)c2c(=O)[nH]c(N(C)Cc3ccc(C(F)(F)F)cc3)nc12 [Example 16, 1-methyl-5-(methyl(4-(trifluoromethyl)benzyl)amino)-3-propyl-1H-pyrazolo[4,3-d]pyrimidin-7(6H)-one] | 0.101 to 0.5
17 | CCCc1nn(C)c2c(=O)[nH]c(N(C)Cc3ccc(Cl)cc3)nc12 [Example 17, 5-((4-chlorobenzyl)(methyl)amino)-1-methyl-3-propyl-1H-pyrazolo[4,3-d]pyrimidin-7(6H)-one] | < 0.1
18 | CCCc1nn(C)c2c(=O)[nH]c(NCc3cccc(F)c3)nc12 [Example 18, 5-(3-fluorobenzylamino)-1-methyl-3-propyl-1H-pyrazolo[4,3-d]pyrimidin-7(6H)-one] | > 0.5
19 | CCCc1nn(C)c2c(=O)[nH]c(NCCC(C)C)nc12 [Example 19, 5-(isopentylamino)-1-methyl-3-propyl-1H-pyrazolo[4,3-d]pyrimidin-7(6H)-one] | > 0.5
20 | CCCc1nn(C)c2c(=O)[nH]c(N(C)CCc3ccc(OC)c(OC)c3)nc12 [Example 20, 5-((3,4-dimethoxyphenethyl)(methyl)amino)-1-methyl-3-propyl-1H-pyrazolo[4,3-d]pyrimidin-7(6H)-one] | > 0.5
21 | CCCc1nn(C)c2c(=O)[nH]c(N(C)Cc3ccc(F)cc3)nc12 [Example 21, 5-((4-fluorobenzyl)(methyl)amino)-1-methyl-3-propyl-1H-pyrazolo[4,3-d]pyrimidin-7(6H)-one] | < 0.1
22 | CCCc1nn(C)c2c(=O)[nH]c(N(C)CCc3ccccc3)nc12 [Example 22, 1-methyl-5-(methyl(phenethyl)amino)-3-propyl-1H-pyrazolo[4,3-d]pyrimidin-7(6H)-one] | 0.101 to 0.5
23 | CCCc1nn(C)c2c(=O)[nH]c(NCc3ccc(F)cc3)nc12 [Example 23, 5-(4-fluorobenzylamino)-1-methyl-3-propyl-1H-pyrazolo[4,3-d]pyrimidin-7(6H)-one] | > 0.5
24 | CCCc1nn(C)c2c(=O)[nH]c(N(C)Cc3ccccc3Cl)nc12 [Example 24, 5-((2-chlorobenzyl)(methyl)amino)-1-methyl-3-propyl-1H-pyrazolo[4,3-d]pyrimidin-7(6H)-one] | 0.101 to 0.5

Results, then the compound that gave them:

Row | IC50 [µM] | SMILES
25 | < 0.1 | CCCc1nn(C)c2c(=O)[nH]c(N(C)Cc3cc(-c4ccccc4)on3)nc12 [Example 25, 1-methyl-5-(methyl((5-phenylisoxazol-3-yl)methyl)amino)-3-propyl-1H-pyrazolo[4,3-d]pyrimidin-7(6H)-one]
26 | 0.101 to 0.5 | CCCc1nn(C)c2c(=O)[nH]c(NCc3cccc(N4CCCC4)c3)nc12 [Example 26, 1-methyl-3-propyl-5-(3-(pyrrolidin-1-yl)benzylamino)-1H-pyrazolo[4,3-d]pyrimidin-7(6H)-one]
27 | 0.101 to 0.5 | CCCc1nn(C)c2c(=O)[nH]c(NCc3ccc(CN4CCOCC4)cc3)nc12 [Example 27, 1-methyl-5-(4-(morpholinomethyl)benzylamino)-3-propyl-1H-pyrazolo[4,3-d]pyrimidin-7(6H)-one]
28 | 0.101 to 0.5 | CCCc1nn(C)c2c(=O)[nH]c(N(Cc3ccccc3)C(C)C)nc12 [Example 28, 5-(benzyl(isopropyl)amino)-1-methyl-3-propyl-1H-pyrazolo[4,3-d]pyrimidin-7(6H)-one]
29 | 0.101 to 0.5 | CCCc1nn(C)c2c(=O)[nH]c(N(CC(C)C)CC(C)C)nc12 [Example 29, 5-(diisobutylamino)-1-methyl-3-propyl-1H-pyrazolo[4,3-d]pyrimidin-7(6H)-one]
30 | 0.101 to 0.5 | CCCc1nn(C)c2c(=O)[nH]c(N(C)CCC)nc12 [Example 30, 1-methyl-5-(methyl(propyl)amino)-3-propyl-1H-pyrazolo[4,3-d]pyrimidin-7(6H)-one]
31 | > 0.5 | CCCc1nn(C)c2c(=O)[nH]c(NCc3cc(C(F)(F)F)cc(C(F)(F)F)c3)nc12 [Example 31, 5-(3,5-bis(trifluoromethyl)benzylamino)-1-methyl-3-propyl-1H-pyrazolo[4,3-d]pyrimidin-7(6H)-one]
32 | 0.101 to 0.5 | CCCc1nn(C)c2c(=O)[nH]c(NCc3ccc(Cl)c(Cl)c3)nc12 [Example 32, 5-(3,4-dichlorobenzylamino)-1-methyl-3-propyl-1H-pyrazolo[4,3-d]pyrimidin-7(6H)-one]
33 | 0.101 to 0.5 | CCCc1nn(C)c2c(=O)[nH]c(N(C)Cc3ccccc3)nc12 [Example 33, 5-(benzyl(methyl)amino)-1-methyl-3-propyl-1H-pyrazolo[4,3-d]pyrimidin-7(6H)-one]
34 | 0.101 to 0.5 | CCCc1nn(C)c2c(=O)[nH]c(N3CCc4cc(F)ccc4C3)nc12 [Example 34, 5-(6-fluoro-3,4-dihydroisoquinolin-2(1H)-yl)-1-methyl-3-propyl-1H-pyrazolo[4,3-d]pyrimidin-7(6H)-one]
35 | > 0.5 | CCCc1nn(C)c2c(=O)[nH]c(N(C)Cc3nn(C)c4ccccc34)nc12 [Example 35, 1-methyl-5-(methyl((1-methyl-1H-indazol-3-yl)methyl)amino)-3-propyl-1H-pyrazolo[4,3-d]pyrimidin-7(6H)-one]
